Patent US20050238730A1, “Compositions comprising an ethanolamine derivative and organic metal salts” (priority 2001, published 2005)

Test system: human dermal fibroblasts
Assay: Fibroblasts proliferation after 10 days of culture (cells trypsinized and counted with a Coulter counter)
Type: cell-based
Conditions: 2% FCS
Protocol: Fibroblasts were seeded in 24 multiwell plates at 25,000 cells per well in 1 ml of DMEM supplemented with fetal calf serum (FCS) and antibiotics. Cultures were incubated 24 hours at 37° C. to allow cell attachment and spreading. Supernatants were then eliminated and replaced with fresh medium supplemented with 2% of FCS and containing the tested product at different concentrations. After 10 days of culture, cells were trypsinized and counted with a Coulter counter.

CN(C)CCO [DMAE, dimethylaminoethanol]
% effect vs control (DMAE 10^-4 M alone): 31% | % effect vs control (DMAE 10^-5 M alone): 14%

N[C@@H](CC(=O)[O-])C(=O)[O-].[Mg+2] [Mg aspartate, magnesium aspartate]
% effect vs control (metal salt alone 5 ng/ml): 2% | Mean of cell/ml (metal salt alone 5 ng/ml): 78073 ± 4231 cell/ml | % effect vs control (metal salt alone 50 ng/ml): 3% | Mean of cell/ml (metal salt alone 50 ng/ml): 79400 ± 1674 cell/ml | % effect vs control (metal salt alone 500 ng/ml): 21% | Mean of cell/ml (metal salt alone 500 ng/ml): 92753 ± 2771 cell/ml

zinc gluconate [Zn gluconate]
% effect vs control (metal salt alone 5 ng/ml): 0% | % effect vs control (metal salt alone 50 ng/ml): 3% | % effect vs control (metal salt alone 500 ng/ml): 11%
